Test results: patent publication US12655145B2, “P2X3 modulators” (GlaxoSmithKline Intellectual Property (No. 3) Limited, priority 2020, dated 2026)

These compounds were tested against T1, P2X3 (Homo sapiens, UniProt P56373) (assay: P2X3 Antagonist Assay (FLIPR calcium, Fluo-8, HEK293 cells transfected with human ion channel cDNAs, αβ-meATP stimulation)). Conditions: HEK293, @ 1 μM, antagonist mode, αβ-meATP 3 μM, read-out: P2X3 IC50 column, given as % @ 1 μM.
T1 construct: expressed in transfected cells; host or cells: HEK293
T1 sequence (P56373 1-397): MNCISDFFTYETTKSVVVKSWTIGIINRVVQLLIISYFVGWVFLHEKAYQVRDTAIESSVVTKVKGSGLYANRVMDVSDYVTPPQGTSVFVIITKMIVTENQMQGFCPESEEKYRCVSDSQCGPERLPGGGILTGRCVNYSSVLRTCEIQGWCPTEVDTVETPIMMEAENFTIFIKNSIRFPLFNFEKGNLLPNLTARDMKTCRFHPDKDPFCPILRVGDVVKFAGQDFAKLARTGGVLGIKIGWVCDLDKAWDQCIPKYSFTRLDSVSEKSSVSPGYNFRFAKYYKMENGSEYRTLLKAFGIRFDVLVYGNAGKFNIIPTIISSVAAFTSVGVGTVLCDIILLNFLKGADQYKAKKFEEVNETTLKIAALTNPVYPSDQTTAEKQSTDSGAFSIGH
Format: cell-based
Description: Example 59: P2X3 Antagonist Assay
HEK293 were transiently or stably transfected with human ion channel cDNAs as indicated in section 1. Stable transfectants were selected by coexpression with the antibiotic-resistance gene(s) incorporated into the expression plasmid(s). Selection pressure was maintained by including selection antibiotics in the culture medium. HEK293 cells were cultured in Dulbecco's Modified Eagle Medium/Nutrient Mixture F-12 (D-MEM/F-12) supplemented with 10% fetal bovine serum, 100 U/mL penicillin G sodium, 100 J·Lg/mL streptomycin sulfate and appropriate selection antibiotics.
The effect of each test article to act as an antagonist was evaluated. Each test article was evaluated at eight (8) concentrations (0.001, 0.003, 0.01, 0.03, 0.1, 0.3, 1 and 3 μM, n=3) with 4 replicates for each concentration. Experiments were performed with the FLIPR calcium sensitive dye kit (Fluo-8 dye, AAT, Bioquest) according to the manufacturer's instructions. • Dye-loading: Growth media will be removed and add 20 μL of Mg^++-free HBPS containing Fluo-8 for 30 min at 37° C. • Preincubation (FLIPR step 1): Adding 5× (5 μL) test, vehicle, or control article solutions in Mg^+-free HBPS to each well for 20 minutes at room temperature, protected from light. • Stimulation (FLIPR step 2): After pre-incubation, cells will be stimulated with 6× (5 μL) αβ-meATP at final concentration of 3 μM prepared in Mg^++-free HBPS. • Non-Specific Calcium Influx (FLIPR step 3): 5 minutes after stimulation solution addition, non-specific calcium influx will be activated by adding 7×(5 μL) ionomycin at a final concentration of 5 μM. Fluorescence will be recorded continuously during FLIPR steps 2 and 3. • Positive Control Antagonist: PPADS (1 mM).
Data acquisition was performed via the FLIPRControl software that is supplied with the FLIPR System (MDS-AT) and data was analyzed using Microsoft Excel2003 (Microsoft Corp., Redmond, WA).

Row | inhibition at 1 µM | SMILES
1 | 6% | CNC(=O)c1cc(F)c(-c2nc3cc(C)cnn3c2C[C@H]2CN(C(=O)OC)CCO2)c(F)c1 [Compound A27, methyl (S)-2-((2-(2,6-difluoro-4-(methylcarbamoyl)phenyl)-7-methylimidazo[1,2-b]pyridazin-3-yl)methyl)morpholine-4-carboxylate]
2 | 5% | CNC(=O)c1cc(F)c(-c2c(C[C@H]3CN(C(=O)OC)CCO3)nc3nc(C)ccn23)c(F)c1 [Compound A33, methyl (S)-2-((3-(2,6-difluoro-4-(methylcarbamoyl)phenyl)-7-methylimidazo[1,2-a]pyrimidin-2-yl)methyl)morpholine-4-carboxylate]

More lines, now with the values behind:

Row | SMILES | inhibition at 1 µM
3 | CNC(=O)c1ccc(-c2nc3cc(C4CC4)ccn3c2C[C@H]2CN(C(=O)OC)CCO2)c(F)c1 [Compound A52, methyl (S)-2-((7-cyclopropyl-2-(2-fluoro-4-(methylcarbamoyl)-phenyl)imidazo[1,2-a]pyridin-3-yl)methyl)morpholine-4-carboxylate] | 50%
4 | COC(=O)N1CCO[C@@H](Cc2c(-c3ccc([S+](C)[O-])cc3F)nc3cc(C)ccn23)C1 (stereo partly drawn) [Compound A58, methyl (2S)-2-((2-(2-fluoro-4-(methylsulfinyl)phenyl)-7-methyl-imidazo[1,2-a]pyridin-3-yl)methyl)morpholine-4-carboxylate] | 16%

Same assay, conditions: antagonist mode, αβ-meATP 3 μM

Row | IC50 | SMILES
5 | < 100 nM | CNC(=O)c1cc(F)c(-c2nc3nc(C)ccn3c2C[C@H]2CN(C(=O)OC)CCO2)c(F)c1 [Compound A28, methyl (S)-2-((2-(2,6-difluoro-4-(methylcarbamoyl)phenyl)-7-methylimidazo[1,2-a]pyrimidin-3-yl)methyl)morpholine-4-carboxylate]
6 | < 100 nM | CNC(=O)c1cc(F)c(-c2nc3cc(C)ncn3c2C[C@H]2CN(C(=O)OC)CCO2)c(F)c1 [Compound A29, methyl (S)-2-((2-(2,6-difluoro-4-(methylcarbamoyl)phenyl)-7-methylimidazo[1,2-c]pyrimidin-3-yl)methyl)morpholine-4-carboxylate]
7 | < 100 nM | CNC(=O)c1cc(F)c(-c2nc3cc(C)ccn3c2C[C@H]2CN(C(=O)OC)CCO2)c(OC)c1F [Compound A30, methyl (S)-2-((2-(3,6-difluoro-2-methoxy-4-(methylcarbamoyl)-phenyl)-7-methylimidazo[1,2-a]pyridin-3-yl)methyl)morpholine-4-carboxylate]
8 | > 1000 nM | CNC(=O)c1cc(F)c(-c2[nH]c3cccc(C)c3c2C[C@H]2CN(C(=O)OC)CCO2)c(F)c1 [Compound A31, methyl (S)-2-((2-(2,6-difluoro-4-(methylcarbamoyl)phenyl)-4-methyl-1H-indol-3-yl)methyl)morpholine-4-carboxylate]
9 | 100 to 1000 nM | CNC(=O)c1cc(F)c(-c2nc3n(c2C[C@H]2CN(C(=O)OC)CCO2)CCC(C)C3)c(F)c1 (stereo partly drawn) [Compound A34, methyl (2S)-2-((2-(2,6-difluoro-4-(methylcarbamoyl)phenyl)-7-methyl-5,6,7,8-tetrahydroimidazo[1,2-a]pyridin-3-yl)methyl)morpholine-4-carboxylate]
10 | 100 to 1000 nM | CNC(=O)c1cc(F)c(-c2c(C[C@H]3CN(C(=O)OC)CCO3)nc3cc(C)ncn23)c(F)c1 [Compound A37]

The next lines start with the compound.

Row | SMILES | IC50
11 | CNC(=O)c1ccc(-c2nc3cc(C(F)F)ccn3c2C[C@H]2CN(C(=O)OC)CCO2)c(Cl)c1 [Compound A32, methyl (S)-2-((2-(2-chloro-4-(methylcarbamoyl)phenyl)-7-(di-fluoromethyl)imidazo[1,2-a]pyridin-3-yl)methyl)morpholine-4-carboxylate] | < 100 nM
12 | CNC(=O)c1cc(F)c(-c2nc3cc(Cl)ccn3c2C[C@H]2CN(C(=O)OC)CCO2)c(OC)c1F [Compound A40, methyl (S)-2-((7-chloro-2-(3,6-difluoro-2-methoxy-4-(methyl-carbamoyl)phenyl)imidazo[1,2-a]pyridin-3-yl)methyl)morpholine-4-carboxylate] | < 100 nM
13 | CNC(=O)c1cc(F)c(-c2nc3cc(C(F)F)ccn3c2C[C@H]2CN(C(=O)OC)CCO2)c(OC)c1F [Compound A41, methyl (S)-2-((2-(3,6-difluoro-2-methoxy-4-(methylcarbamoyl)-phenyl)-7-(difluoromethyl)imidazo[1,2-a]pyridin-3-yl)methyl)morpholine-4-carboxylate] | 100 to 1000 nM
14 | CNC(=O)c1ccc(-c2nc3cc(C(F)F)ccn3c2C[C@H]2CN(C(=O)OC)CCO2)c(F)c1 [Compound A42, methyl (S)-2-((7-(difluoromethyl)-2-(2-fluoro-4-(methylcarbamoyl)phenyl)imidazo[1,2-a]pyridin-3-yl)methyl)morpholine-4-carboxylate] | < 100 nM
15 | CNC(=O)c1ccc(-c2nc3cc(C(F)F)ccn3c2C[C@H]2CN(C(=O)OC)CCO2)c(C)c1 [Compound A43, methyl (S)-2-((7-(difluoromethyl)-2-(2-methyl-4-(methylcarbamoyl)phenyl)imidazo[1,2-a]pyridin-3-yl)methyl)morpholine-4-carboxylate] | < 100 nM
16 | CNC(=O)c1cc(C)c(-c2nc3cc(C(F)F)ccn3c2C[C@H]2CN(C(=O)OC)CCO2)cc1F [Compound A44, methyl (S)-2-((7-(difluoromethyl)-2-(5-fluoro-2-methyl-4-(meth-ylcarbamoyl)phenyl)imidazo[1,2-a]pyridin-3-yl)methyl)morpholine-4-carboxylate] | < 100 nM
17 | CCc1ccn2c(C[C@H]3CN(C(=O)OC)CCO3)c(-c3ccc(C(=O)NC)cc3F)nc2c1 [Compound A45, methyl (S)-2-((7-ethyl-2-(2-fluoro-4-(methylcarbamoyl)phenyl)imidazo[1,2-a]pyridin-3-yl)methyl)morpholine-4-carboxylate] | < 100 nM
18 | CNC(=O)c1ccc(-c2nc3cc(S(C)(=O)=O)ccn3c2C[C@H]2CN(C(=O)OC)CCO2)c(F)c1 [Compound A48, methyl (S)-2-((2-(2-fluoro-4-(methylcarbamoyl)phenyl)-7-(methylsulfonyl)imidazo[1,2-a]-pyridin-3-yl)methyl)morpholine-4-carboxylate] | > 1000 nM
19 | CNC(=O)c1ccc(-c2nc3cc(CF)ccn3c2C[C@H]2CN(C(=O)OC)CCO2)c(F)c1 [Compound A49, methyl (S)-2-((2-(2-fluoro-4-(methylcarbamoyl)phenyl)-7-(fluoromethyl)imidazo[1,2-a]pyridin-3-yl)methyl)morpholine-4-carboxylate] | 100 to 1000 nM
20 | COC(=O)N1CCO[C@@H](Cc2c(-c3ccc(S(C)(=O)=O)cc3F)nc3cc(C)ccn23)C1 [Compound A61, methyl (S)-2-((2-(2-fluoro-4-(methylsulfonyl)phenyl)-7-methylimidazo[1,2-a]pyridin-3-yl)methyl)morpholine-4-carboxylate] | 100 to 1000 nM
21 | COC(=O)N1CCO[C@@H](Cc2c(-c3ccc(C(=O)N(C)C)cc3F)nc3cc(Cl)ccn23)C1 [Compound A65, methyl (S)-2-((7-chloro-2-(4-(dimethylcarbamoyl)-2-fluoro-phenyl)imidazo[1,2-a]pyridin-3-yl)methyl)morpholine-4-carboxylate] | 100 to 1000 nM
22 | CCN(C)C(=O)c1ccc(-c2nc3cc(Cl)ccn3c2C[C@H]2CN(C(=O)OC)CCO2)c(F)c1 [Compound A66, methyl (S)-2-((7-chloro-2-(4-(ethyl(methyl)carbamoyl)-2-fluoro-phenyl)imidazo[1,2-a]pyridin-3-yl)methyl)morpholine-4-carboxylate] | < 100 nM
23 | COC(=O)N1CCO[C@@H](Cc2c(-c3ccc(C(=O)N4CCCC4)cc3F)nc3cc(Cl)ccn23)C1 [Compound A67, methyl (S)-2-((7-chloro-2-(2-fluoro-4-(pyrrolidine-1-carbonyl)-phenyl)imidazo[1,2-a]pyridin-3-yl)methyl)morpholine-4-carboxylate] | 100 to 1000 nM
24 | COC(=O)N1CCO[C@@H](Cc2c(-c3ccc(C(=O)N4CC[C@H](O)C4)cc3F)nc3cc(Cl)ccn23)C1 [Compound A68, methyl (S)-2-((7-chloro-2-(2-fluoro-4-((S)-3-hydroxypyrrolidine-1-carbonyl)phenyl)imidazo[1,2-a]pyridin-3-yl)methyl)morpholine-4-carboxylate] | 100 to 1000 nM
